# Results from patent US5550124A, “Use of peripheral-type benzodiazpine sites for treatment of CNS trauma or disease” (priority 1991, dated 1996).
# Entries after “also recorded” stand apart in the source; their conditions may differ. Where two headings read alike, the source gives them in different places.
# Legend:
# [1] = in vivo; cited from earlier work
# [2] = dogs; cited from earlier work
# [3] = test system: NMDA receptor; conditions: rats; cited from earlier work
# [4] = test system: NMDA receptor; conditions: in vivo; cited from earlier work
# [5] = test system: NMDA receptor; conditions: cats; cited from earlier work
# [6] = rats; cited from earlier work
# [7] = in vivo; cited from earlier work; remark: listed apart in the source
# [8] = in vivo; cited from earlier work; remark: listed apart in the source
# [9] = in vivo; cited from earlier work; remark: listed apart in the source
# [10] = target: T1, peripheral-type BZ receptors (Rattus norvegicus, UniProt P16257); assay: Competitive binding assay, displacement of 3H-Ro5-4864 in brain homogenates
# T1 construct: displacement of ^3 H-RO5-4864 in brain homogenates; from tissue; host or cells: brain homogenates
# Text: Sprengel, R., et al., "Molecular cloning and expression of cDNA encoding a peripheral-type benzodiazepine receptor," J. Biol. Chem., 264:20415-20421 (1989).
# Some of these compounds were further tested in in vivo studies.
# [11] = Physical trauma (head injury) model, grip score 18 hours post-injury; format: in vivo, mice (male CF-1)
# Text: Two tests which can be readily performed are observation of grip score and observation of grip time in injured test animals. Another test for agonist activity is for decrease in mortality caused by the CNS injury. Mice can be treated to simulate CNS injury by a variety of methods: they can be deprived of oxygen by administration of KCN (Nauquier, A., et al., Arch. Int. Pharmacodyn., 249:330 (1981)) or by temporary tying-off of the carotid artery (Braughler, J. M. and Lainer, M. J., "The effects of large doses of methylprednisolone on neurologic recovery and survival in the Mongolian gerbil following three hours of unilateral carotid occlusion," CNS Trauma, 3:153-162 (1986)). Alternatively, blows can be administered to the head or the spinal cord of the test animal.
# The following protocol was used:
# The compound to be tested was weighed and suspended in a polyethylated castor oil solution ("Cremophore") (21% Cremaphore, 3% ethanol in 0.9% saline). The concentration of the solution was then adjusted for administration at a dose of 0.01 cc/gm body weight. For example, for a dose of 10 mg/Kg, the solution was made 1.0 mg/cc, and a 23 g mouse would receive 0.23 cc of this solution. The solution was sonicated for approximately 90 minutes, or until the compound is dissolved.
# Male CF-1 mice (15-25 gm) were weighed and marked for identification purposes. Each individual mouse was restrained by grasping the dorsal skin of the neck until the mouse was still. An impounder was used to administer the trauma. The impounder consists of a weight suspended over the animal's head at a height sufficient to produce significant injury when dropped, and a means for immobilizing the animal (in this case, room to hold the animal in place). […] 62:882-887, 883. The mouse was positioned properly under the impounder, and the weight was released from its preset height (11 CM).
# Immediately following injury, the mouse was placed under a heat lamp. At various times after injury, the drug was administered intravenously at the specified dose. The time of injury and the time of injection were recorded.
# B) Measurement of Grip Score
# Each mouse was evaluated 18 hours post-injury for neurological deficit. The delay of 18 hours provided time for any sedative effects of the compound to wear off. It also provided time for healing to occur. Mortality was also noted. A standard grip test, as described in Hall et al., J. Neurosurg. 68:456-461 (1988), was used. The apparatus consisted of a taut string suspended between two uprights, 60 cm in length and 40 cm above a padded table.
# Each mouse was picked up by the tail and placed on the string. […] The tail was then released. Grip score was recorded based on the mouse's performance while on the string. The following criteria were used (taken from Hall, E. D., J. Neurosurg. 62:882-887 (1985)):
# C) Statistical Analysis Results of the above test were analyzed for statistical significance using the Mann-Whitney U test. See R. V. Tallarida & R. B. Murray, MANUAL OF PHARMACOLOGIC CALCULATIONS WITH COMPUTER PROGRAMS, Springer-Verlag, N.Y., pp. 57-59 (1981). This test was used to compare each set of grip scores for a particular dose of a particular compound against the grip scores for the control group.
# [12] = format: in vivo, mice (male CF-1)
# [13] = in vivo; cited from earlier work; remark: listed apart in the source
# [14] = administered post-ischemia in animals; cited from earlier work
# [15] = ischemic baboons; cited from earlier work
# [16] = test system: platelet aggregation; conditions: cited from earlier work
compound,measurement,setting,value
"CN1C(=O)CN=C(c2ccccc2)c2cc(Cl)ccc21 [Diazepam, 7-Chloro-1,3-dihydro-1-methyl-5-phenyl-2H-1,4-benzodiazepin-2-one]",effect in cerebral ischemia,[1],somewhat effective in treatment of cerebral ischemia
Fc1ccc(C(c2ccc(F)cc2)N2CCN(C/C=C/c3ccccc3)CC2)cc1 [Flunarizine],effect on cerebral blood flow,[2],no increase in cerebral blood flow or improvement in cerebral metabolism
C[C@]12N[C@H](Cc3ccccc31)c1ccccc12 [MK-801],effect on blood pressure,[3],increases blood pressure
same,adverse reactions,[4],"respiratory depression and elevated CO2 level; also recorded: behavioral changes, including a psychotic-like response and diminished cognitive and mental status"
same,effect on blood pressure,[5],increases blood pressure
COC(=O)C1=C(C)NC(C)=C(C(=O)OC)C1c1ccccc1[N+](=O)[O-] [Nifedipine],effect on cerebral blood flow,[6],antagonize cerebral blood flow
"CCCCC[C@H](O)/C=C/[C@@H]1[C@H]2C/C(=C/CCCC(=O)O)O[C@H]2C[C@H]1O [PGI2, prostaglandin I2]",half life,[7],3 min
same,adverse effects,[8],tendency to precipitate hypotension
"CCC(C)N(C)C(=O)c1cc2ccccc2c(-c2ccccc2Cl)n1 (stereo not drawn) [PK 11195, N-methyl-N-1-(1-methyl,propyl)(2-chlorophenyl)-3-isoquinoline carboxamide]",effect in cardiac ischemia,[9],ineffective in treating cardiac ischemia
same,binding affinity to peripheral-type BZ sites (in words),[10],high degree of affinity
same,grip score 18 hours post trauma (in words),"[11]; 0.1 mg/kg i.v., FIG. 1",statistically significant increase in the grip score
same,neurological deficit score (grip score),"[11]; 1 mg/kg i.v., 5 min post injury, control 2.06 ± 0.23, P<0.05",3.07 ± 0.47
same,neurological deficit score (grip score),"[11]; 1 mg/kg i.v., 30 min post injury, control 1.54 ± 0.43, P<0.004",3.53 ± 0.36
same,neurological deficit score (grip score),"[11]; 1 mg/kg i.v., 60 min post injury, control 2.54 ± 0.51",1.93 ± 0.42
same,neurological deficit score (grip score),"[11]; 10 mg/kg i.v., 5 min post injury, control 2.06 ± 0.23, P<0.05",2.89 ± 0.40
same,neurological deficit score (grip score),"[11]; 10 mg/kg i.v., 30 min post injury, control 1.56 ± 0.50",2.53 ± 0.40
same,neurological deficit score (grip score),"[11]; 10 mg/kg i.v., 60 min post injury, control 1.38 ± 0.60, P<0.03",2.62 ± 0.40
same,grip score versus controls (in words),"[11]; 10 mg/kg, administered up to 1 hour post-injury",statistically significant increase in grip score
same,effectiveness in treatment of CNS trauma/damage (in words),"[11]; grip score 18 h post trauma, FIGS. 1-8",effective
same,percent survival (in words),"[12]; after KCN, increasing dose of compound, FIG. 10",increasing the dose of the compound increases the percent survival
same,protection against KCN mortality (in words),"[12]; varied KCN dose, FIG. 11",protect against higher doses of KCN
CC(=O)CCCCn1c(=O)c2c(ncn2C)n(C)c1=O [Pentoxifylline],effect on blood viscosity / red blood cell flexibility,[13],improves the oxygenation of ischemic tissues by decreasing blood viscosity
same,adverse effects,[8],"chest pain, dyspepsia, nausea, vomiting, dizziness, headache, tremor, anxiety, blurred vision, malaise, and others"
CN(C)CCCSc1ccccc1NC(=O)/C=C/c1ccccc1 [cinanserin],effect on neurologic function,[14],help preserve neurologic function
CN1CCC(=C2c3ccccc3C=Cc3ccccc32)CC1 [cyproheptadine],effect on neurologic function,[14],help preserve neurologic function
COc1ccc2c(c1)c(CC(=O)O)c(C)n2C(=O)c1ccc(Cl)cc1 [indomethacin],"edema, cerebral blood flow and carbon dioxide reactivity",[15],significantly increase edema and decrease cerebral blood flow and carbon dioxide reactivity
same,effect on platelet aggregation,[16],inhibit platelet aggregation
